From PubChem BioAssay AID1963979 (Molecular Pharmacology Branch, DTP, NCI, 2024)
pIC50: −log10 of the molar value.

Test system: 361931-004-R-J1-PDC multicell spheroid viability
Assay: Anticancer human tumor 361931-004-R-J1-PDC patient-derived colon adenocarcinoma cell line growth inhibition [PI3K]
Conditions: for pIC50: curve of first compound; for viability, T/C: stronger effect = lower value; active means viability on the fitted dose curve at most 10% of control; inactive means the rest
How it was run: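 Spheroid viability read-out. Co-cultures contained the tumor line plus HUVEC and human MSCs. Each agent was paired with a PI3K inhibitor (inavolisib, alpelisib, duvelisib, copanlisib) across half-log dilutions starting at clinical Cmax, or at 10 microM when Cmax was unknown.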

[1] = second compound 0.00316 µM, first compound 0.0316 µM
[2] = second compound 0.00316 µM, first compound 0.1 µM
[3] = second compound 0.00316 µM, first compound 0.316 µM
[4] = second compound 0.00316 µM, first compound 1 µM
[5] = second compound 0.00316 µM, first compound 3.16 µM
[6] = second compound 0.00316 µM, first compound 10 µM
[7] = second compound 0.01 µM, first compound 0.0316 µM
[8] = second compound 0.01 µM, first compound 0.1 µM
[9] = second compound 0.01 µM, first compound 0.316 µM
[10] = second compound 0.01 µM, first compound 1 µM
[11] = second compound 0.01 µM, first compound 3.16 µM
[12] = second compound 0.01 µM, first compound 10 µM
[13] = second compound 0.0316 µM, first compound 0.0316 µM
[14] = second compound 0.0316 µM, first compound 0.1 µM
[15] = second compound 0.0316 µM, first compound 0.316 µM
[16] = second compound 0.0316 µM, first compound 1 µM
[17] = second compound 0.0316 µM, first compound 3.16 µM
[18] = second compound 0.0316 µM, first compound 10 µM
[19] = second compound 0.1 µM, first compound 0.0316 µM
[20] = second compound 0.1 µM, first compound 0.1 µM
[21] = second compound 0.1 µM, first compound 0.316 µM
[22] = second compound 0.1 µM, first compound 1 µM
[23] = second compound 0.1 µM, first compound 3.16 µM
[24] = second compound 0.1 µM, first compound 10 µM
[25] = second compound 0.316 µM, first compound 0.0316 µM
[26] = second compound 0.316 µM, first compound 0.1 µM
[27] = second compound 0.316 µM, first compound 0.316 µM
[28] = second compound 0.316 µM, first compound 1 µM
[29] = second compound 0.316 µM, first compound 3.16 µM
[30] = second compound 0.316 µM, first compound 10 µM
[31] = second compound 1 µM, first compound 0.0316 µM
[32] = second compound 1 µM, first compound 0.1 µM
[33] = second compound 1 µM, first compound 0.316 µM
[34] = second compound 1 µM, first compound 1 µM
[35] = second compound 1 µM, first compound 3.16 µM
[36] = second compound 1 µM, first compound 10 µM
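Further: spheroids exposed to agents for seven days before readout.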

Cn1ncc(Cl)c1-c1cc(C(=O)NC(CN)Cc2cccc(F)c2)sc1Cl (stereo unspecified) + COc1c(OCCCN2CCOCC2)ccc2c3n(c(=NC(=O)c4cnc(N)nc4)nc12)CCN3
5.74: pIC50 (second compound 0.0316 µM)
5.80: pIC50 (second compound 0.1 µM)
7.31: pIC50 (second compound 0.316 µM)
> 7.50: pIC50 (second compound 1 µM)
5.72: pIC50 (second compound 0.01 µM)
5.60: pIC50 (second compound 0.00316 µM)
inactive: viability, T/C [1] 104% | viability, T/C [2] 111% | viability, T/C [3] 100% | viability, T/C [4] 80.6% | viability, T/C [5] 42.5% | viability, T/C [6] 27.4% | viability, T/C [7] 104% | viability, T/C [8] 102% | viability, T/C [9] 94.8% | viability, T/C [10] 66.7% | viability, T/C [11] 37.2% | viability, T/C [12] 26.7% | viability, T/C [13] 94.9% | viability, T/C [14] 101% | viability, T/C [15] 90.6% | viability, T/C [16] 61.6% | viability, T/C [17] 40.1% | viability, T/C [18] 25.6% | viability, T/C [19] 83.4% | viability, T/C [20] 83.9% | viability, T/C [21] 74.2% | viability, T/C [22] 63% | viability, T/C [23] 31.6% | viability, T/C [24] 19% | viability, T/C [25] 54.2% | viability, T/C [26] 43.5% | viability, T/C [27] 40.5% | viability, T/C [28] 35.8% | viability, T/C [29] 30.9% | viability, T/C [30] 15.8% | viability, T/C [31] 19.7% | viability, T/C [32] 19.4% | viability, T/C [33] 18.7% | viability, T/C [34] 20.3% | viability, T/C [35] 19.7% | viability, T/C [36] 10.3%

CC1(C)CCC(Nc2ncc(C(F)(F)F)c(-c3c[nH]c4c(P(C)(C)=O)c(C#N)ccc34)n2)CN1 (stereo unspecified) + COc1c(OCCCN2CCOCC2)ccc2c3n(c(=NC(=O)c4cnc(N)nc4)nc12)CCN3
5.26: pIC50 (second compound 0.00316 µM)
> 7.50: pIC50 (second compound 0.316 µM) | pIC50 (second compound 1 µM)
inactive: viability, T/C [1] 85.5% | viability, T/C [2] 94.7% | viability, T/C [3] 83.8% | viability, T/C [4] 92.7% | viability, T/C [5] 85.1% | viability, T/C [6] 12.9% | viability, T/C [7] 92.4% | viability, T/C [8] 92.7% | viability, T/C [9] 82% | viability, T/C [10] 83.1% | viability, T/C [11] 73.6% | viability, T/C [12] 12.7% | viability, T/C [13] 80.7% | viability, T/C [14] 72.5% | viability, T/C [15] 67.7% | viability, T/C [16] 66.3% | viability, T/C [17] 67.1% | viability, T/C [18] 12% | viability, T/C [19] 63.4% | viability, T/C [20] 56.6% | viability, T/C [21] 59.3% | viability, T/C [22] 51.6% | viability, T/C [23] 56.6% | viability, T/C [25] 39.4% | viability, T/C [26] 49.5% | viability, T/C [27] 43.8% | viability, T/C [28] 44.2% | viability, T/C [29] 42.6% | viability, T/C [31] 20.4% | viability, T/C [32] 18.4% | viability, T/C [33] 19.9% | viability, T/C [34] 24.3% | viability, T/C [35] 19.9% | viability, T/C [36] 2.05%
active: viability, T/C [24] 8.34% | viability, T/C [30] 5.6%
5.31: pIC50 (second compound 0.01 µM)
5.43: pIC50 (second compound 0.1 µM)
5.35: pIC50 (second compound 0.0316 µM)

C[C@@H](NC(=O)c1ncnc(N)c1Cl)c1ncc(C(=O)Nc2cc(C(F)(F)F)c(Cl)cn2)s1 + Cc1nc(NC(=O)N2CCCC2C(N)=O)sc1-c1ccnc(C(C)(C)C(F)(F)F)c1
< 5.00: pIC50 (second compound 0.0316 µM) | pIC50 (second compound 0.1 µM) | pIC50 (second compound 0.316 µM) | pIC50 (second compound 1 µM)
6.39: pIC50 (second compound 10 µM)
5.31: pIC50 (second compound 3.16 µM)
active: viability, T/C (second compound 10 µM, first compound 10 µM) 3.55%
inactive: viability, T/C [13] 104% | viability, T/C [14] 106% | viability, T/C [15] 80.8% | viability, T/C [16] 97.3% | viability, T/C [17] 92.9% | viability, T/C [18] 85.5% | viability, T/C [19] 110% | viability, T/C [20] 104% | viability, T/C [21] 89.1% | viability, T/C [22] 106% | viability, T/C [23] 92.9% | viability, T/C [24] 80.5% | viability, T/C [25] 102% | viability, T/C [26] 100% | viability, T/C [27] 99.3% | viability, T/C [28] 89% | viability, T/C [29] 101% | viability, T/C [30] 78% | viability, T/C [31] 104% | viability, T/C [32] 95.8% | viability, T/C [33] 93.3% | viability, T/C [34] 88.8% | viability, T/C [35] 84.2% | viability, T/C [36] 60.9% | viability, T/C (second compound 3.16 µM, first compound 0.0316 µM) 89.9% | viability, T/C (second compound 3.16 µM, first compound 0.1 µM) 84.8% | viability, T/C (second compound 3.16 µM, first compound 0.316 µM) 76.1% | viability, T/C (second compound 3.16 µM, first compound 1 µM) 70.4% | viability, T/C (second compound 3.16 µM, first compound 3.16 µM) 67.1% | viability, T/C (second compound 3.16 µM, first compound 10 µM) 31% | viability, T/C (second compound 10 µM, first compound 0.0316 µM) 77.8% | viability, T/C (second compound 10 µM, first compound 0.1 µM) 59% | viability, T/C (second compound 10 µM, first compound 0.316 µM) 55.6% | viability, T/C (second compound 10 µM, first compound 1 µM) 41.7% | viability, T/C (second compound 10 µM, first compound 3.16 µM) 22%
